The source of these data is patent US6759238B1, “Multidrug resistance associated proteins and uses thereof” (priority 1999, dated 2004).

The structures appear in SMILES notation. pIC50: −log10 of the molar value. Like-named read-outs stand apart in the source and are kept apart here.

The subject of series [1] is CEM-r1 cells. As to the kind of experiment: Cytotoxicity assay (growth inhibition, Coulter counter). To be noted: for Relative Resistance: CEM-r1 vs CEM-SS (Table 3); for Cross-resistance of CEM-r1 cells (in words): relative sensitivity of wild-type and CEM-r1 cells. As for the experimental part: Selection for PMEA resistance was carried out by exposing CEM-SS cells in culture to increasing concentrations of PMEA, over several months.
The IC50 values were obtained after 2 days of culture. Each result is the mean of one representative experiment performed in duplicate. The cultures with the purine nucleosides adenosine, 2′-deoxyadenosine, and arabinosyladenine contained 5 μM deoxycoformycin to inhibit adenosine deaminase activity.
(§1) All assays were performed in 24-well tissue culture plates (Costar, Cambridge, Ma.). […] At the end of the incubation, the cell concentrations, sizes, and volumes were counted in a Coulter counter (Coulter Electronics, Hialeah. Fla.).

The test system of series [2] is CEM-SS cells. The description is as above. As for the experimental part: […] Each result is the mean of one representative experiment performed in duplicate. The cultures with the purine nucleosides adenosine, 2′-deoxyadenosine, and arabinosyladenine contained 5 μM deoxycoformycin to inhibit adenosine deaminase activity.
as §1

The test system of series [3] is CEM-r1 cells. As to the kind of experiment: Uptake and metabolism of [3H]PMEA. Conditions: for Intracellular levels: CEM-r1, 10 μM [3H]PMEA; for Intracellular level in CEM-r1 as percent of the wildtype level: CEM-r1 vs CEM-SS.
Procedure: (§5) The mutant and parental cells were incubated with 10 μM [^3H]PMEA and at various times were analyzed for intracellular levels of PMEA and its metabolites by Partisil SAX HPLC. […] The metabolism of [^3H]PMEA was also examined in both cell lines after longer periods (i.e., 8 and 12 hr) of incubation with 10 μM [^3H]PMEA.
(§6) Exponentially growing cultures were incubated with 10 μM [^3H] PMEA for 8 or 12 hr and the cell extracts were analyzed for PMEA and its metabolites by ion exchange HPLC, as described.
(§7) Exponentially growing CEM-SS and CEM-r1 cells were harvested by centrifugation, resuspended at 1×10^6 cells/ml in fresh medium in the presence of [^3H]PMEA or [^3H]bispom-PMEA, and incubated at 37° C. At the indicated time points, aliquots of the cells were removed and centrifuged through Nyosil 50 (W. F. Nye, Inc., New Bedford, Ma.) at 13,000×g for 60 seconds at 4° C. When bispom-PMEA was investigated, an aliquot of the cell-free medium was also removed and analyzed by HPLC for determination of extracellular metabolites. The cell pellet was extracted with 70% ice-cold methanol and the aqueous phase was collected and analyzed for intracellular tritiated PMEA or tritiated bispom-PMEA and their metabolites by using HPLC analysis, essentially as described previously (23, 24).
Series [4] has as its system CEM-SS cells. As to the kind of experiment: Uptake and metabolism of [3H]PMEA. Conditions: 10 μM [3H]PMEA.
Procedure: as §5, §6, §7
Series [5] relates to CEM-r1 cells. As to the kind of experiment: Efflux of [3H]-AZT and its metabolites. It counts as in vitro ADME, human. As for the experimental part: Cells were incubated for 60 minutes with [^3H]-AZT (10 μM) after which they were washed free of radioactivity, resuspended in drug-free medium and the intracellular and the extracellular concentration of [^3H]-AZT were measured. […] At least 80% of the AZTMP present intracellularly in CEM-r1 cells was excreted into the medium in 10 minutes (FIG. 6A).
Referring to Table 6 in greater detail, efflux kinetics were studied. Transport analysis of PMEA was conducted as previously described^48. […] The cells were then washed free of radioactivity and then incubated in drug-free medium in the presence of sodium azide and 2-deoxy-D-glucose. At various time periods, the amount of intracellular AZTMP was measured. As reported in Table 6, depletion of ATP led to an inhibition of AZTMP efflux (i.e. a significant accumulation of AZTMP in the CEM-r1 cells but not in the CEM-SS cells).
The suspension was centrifuged at 3,300 rpm for 7 minutes. All but 1 ml of the supernatant medium containing the free drug was aspirated. […] The cell pellet was then washed with ice-cold medium and resuspended at the same concentration in drug-free medium and maintained at 37° C. […] An aliquot of the top layer (cell free media) was analyzed for the quantitation of AZT and its metabolites.

In series [6] the test system is CEM-r1 cells. The experiment in a line: Phosphorylation of AZT. It counts as in vitro ADME, human. Conditions: CEM-r1, 10 μM AZT. The method, then: (§2) The appearance of the phosphorylated metabolites into the medium was also determined in both the cell lines. AZTDP and AZTTP were not detected in the medium of either CEM-SS or CEM-r1 cells. However, the amount of AZTMP accumulated in the media was approximately 3-fold higher in CEM-r1 cells than in CEM-SS cells.
(§3) The cartridges were conditioned with 10% MeOH Ammonium Phosphate Buffer (5 mM, pH 4.0). The sample was loaded onto the column. […] AZTDP and AZTTP were eluted with 10% MeOH Ammonium Phosphate Buffer (700 mm, pH 4.6).

The test system of series [7] is CEM-SS cells. The experiment in a line: Phosphorylation of AZT. It counts as in vitro ADME, human. To be noted: 10 μM AZT. As for the experimental part: as §2, §3
For series [8], the system named is CEM-r1 cells. As to the kind of experiment: Uptake and metabolism of [3H]bispom-PMEA. To be noted: CEM-r1, 1 μM [3H]bispom-PMEA, 15 minutes. The method, then: (§4) Therefore, the metabolism of [^3H]bispom-PMEA (15), a lipophilic prodrug of PMEA, was analyzed in the two cell lines in order to further examine the mechanism of resistance in the mutant cell line.
Series [9] concerns CEM-SS cells. The experiment in a line: Uptake and metabolism of [3H]bispom-PMEA. To be noted: CEM-SS, 1 μM [3H]bispom-PMEA, 15 minutes. As for the experimental part:
as §4

The mark [10] stands for this setting: CEM-r1, 2 days of culture (Table 3).
[11] abbreviates: CEM-SS, 2 days of culture (Table 3).

Turning to `Nc1ncnc2c1ncn2C[C@@H](CO)OCP(=O)(O)O` [HPMPA], the pIC50 with CEM-r1 cells [1] (setting [10]) was 2.96. In the series on CEM-r1 cells [1], the “Relative Resistance” value is given as 12 and the “Cross-resistance of CEM-r1 cells (in words)” value (from here on “Cross-resistance”) is recorded as “partial cross-resistance”. Further, the pIC50 in the series on CEM-SS cells [2] (setting [11]) is 4.04.

Compound `Nc1nc(F)nc2c1ncn2[C@@H]1O[C@H](CO)[C@@H](O)[C@@H]1O` [2-Fluoroarabinosyladenine] showed a pIC50 in the series with CEM-r1 cells [1] (setting [10]) of 5.36. In addition, in the series with CEM-r1 cells [1], the “Relative Resistance” value stood at 3.7 and the “Cross-resistance” value was “partially resistant”. The compound also gave a pIC50 in the series with CEM-SS cells [2] (setting [11]) of 5.92.

For the compound `Nc1ncnc2c1ncn2CCOCP(=O)(O)OP(=O)(O)O` [PMEAp], the Intracellular levels with CEM-r1 cells [3] (8 hr) stood at 0.005 µM; in the series with CEM-r1 cells [3] (12 hr) it was 0.005 µM; with CEM-SS cells [4] (8 hr), 0.13 µM; in the series on CEM-SS cells [4] (12 hr) it was 0.23 µM. For the same compound, the “Intracellular level in CEM-r1 as percent of the wildtype level” value with CEM-r1 cells [3] (8 hr) is reported as “(3.8%)”.

For the compound `Nc1ncnc2c1ncn2CCOCP(=O)(O)OP(=O)(O)OP(=O)(O)O` [PMEApp], the Intracellular levels in the series on CEM-r1 cells [3] (8 hr) was determined as 0.008 µM; with CEM-r1 cells [3] (12 hr) it was 0.01 µM; in the series on CEM-SS cells [4] (8 hr) it was 0.22 µM; in the series with CEM-SS cells [4] (12 hr), 0.41 µM. The “Intracellular level in CEM-r1 as percent of the wildtype level” value with CEM-r1 cells [3] (8 hr) is listed as “(3.6%)”.

Take `Nc1nc(Cl)nc2c1ncn2[C@H]1C[C@H](O)[C@@H](CO)O1` [2-Chlorodeoxyadenosine]: in the series on CEM-r1 cells [1], the “Relative Resistance” value is listed as 5.5. Also, the pIC50 in the series with CEM-r1 cells [1] (Homo sapiens, 48 h) was 6.40; in the series with CEM-SS cells [2] (Homo sapiens, CEM-SS, 48 h), 7.10. In the series with CEM-r1 cells [1], the “Cross-resistance” value is “partially resistant”.

Regarding `Nc1ncnc2c1ncn2[C@H]1C[C@H](O)[C@@H](CO)O1` [2′-Deoxyadenosine], in the series with CEM-r1 cells [1], the “Relative Resistance” value is recorded as “˜1”. In addition, the pIC50 in the series on CEM-r1 cells [1] (Homo sapiens, 48 h) was 5.60; with CEM-SS cells [2] (Homo sapiens, CEM-SS, 48 h), 5.77.

Take `Nc1ncnc2c1ncn2[C@@H]1O[C@H](CO)[C@@H](O)[C@@H]1O` [Arabinosyladenine]: the “Relative Resistance” value with CEM-r1 cells [1] is reported as “˜1”. The negative-log IC50 (pIC50) in the series on CEM-r1 cells [1] (Homo sapiens, 48 h) is 6.05; with CEM-SS cells [2] (Homo sapiens, CEM-SS, 48 h) it was 6.15.

As to `NC(=O)NO` [Hydroxyurea], the “Relative Resistance” value in the series on CEM-r1 cells [1] is listed as “˜1”. Moreover, the pIC50 with CEM-r1 cells [1] (Homo sapiens, 48 h) was 4.30; in the series on CEM-SS cells [2] (Homo sapiens, CEM-SS, 48 h), 4.26.

For `Nc1nc2c(ncn2CCOCP(=O)(O)O)c(=O)[nH]1` [PMEG, 9-(2-phosphonylmethoxyethyl)guanine], the pIC50 in the series on CEM-r1 cells [1] (setting [10]) was 4.72; with CEM-r1 cells [1] (read-out: Cytotoxicity IC50, CEM-r1 cells (Table 5)), 3.70; in the series with CEM-SS cells [2] (setting [11]), 6.15; in the series on CEM-SS cells [2] (read-out: Cytotoxicity IC50, WT (CEM-SS) cells (Table 5)) it was 5.30. For the same compound, the “Cross-resistance” value in the series on CEM-r1 cells [1] is “partial cross-resistance”.

Consider `Cc1cn([C@H]2C[C@H](N=[N+]=[N-])[C@@H](CO[P@](=O)(O)O[P@](=O)(O)OP(=O)(O)O)O2)c(=O)[nH]c1=O` [AZTTP], for which, in the series with CEM-r1 cells [5], the “Change of intracellular levels over the time period studied” value is on record as “did not change significantly”. Besides, the “Share of total cellular anabolites” value in the series with CEM-r1 cells [5] (human, 10 μM) was determined as 1%. The “Appearance in the medium” value in the series on CEM-r1 cells [6] and in the series with CEM-SS cells [7] was “not detected” each time. The “Intracellular Concentration” value in the series with CEM-r1 cells [6] (4 hours) came to 0.36 µM; in the series on CEM-r1 cells [6] (8 hours), 0.34 µM; with CEM-r1 cells [6] (24 hours) it was 0.43 µM; with CEM-SS cells [7] (4 hours), 1.3 µM; in the series on CEM-SS cells [7] (8 hours) it was 1.5 µM; in the series with CEM-SS cells [7] (24 hours), 1.3 µM.

With `Nc1ncnc2c1ncn2[C@@H]1O[C@H](CO)[C@@H](O)[C@H]1O` [Adenosine], in the series on CEM-r1 cells [1], the “Relative Resistance” value was determined as 5.4 and the “Cross-resistance” value is on record as “partially resistant”. This compound also gave a pIC50 with CEM-r1 cells [1] (Homo sapiens, 48 h) of 3.69. In the series on CEM-SS cells [2] (Homo sapiens, CEM-SS, 48 h), this compound gave a pIC50 of 4.42.

For the compound `COc1cc2c(c(OC)c1OC)-c1ccc(OC)c(=O)cc1[C@@H](NC(C)=O)CC2` [Colchicine], in the series on CEM-r1 cells [1], the “Cross-resistance” value is recorded as “not resistant”.

Turning to `CC(C)(C)C(=O)OCOP(=O)([O-])COCCn1cnc2c(N)ncnc21.[Na+]` [Monopom-PMEA], in the series on CEM-r1 cells [8], the “Metabolite Levels, Cells” value was 4.1 µM and the “Metabolite Levels, Medium” value was determined as 166 nM. Moreover, in the series with CEM-SS cells [9], the “Metabolite Levels, Cells” value was 4.6 µM and the “Metabolite Levels, Medium” value is reported as 185 nM.

Turning to `CC[C@]1(O)C[C@@H]2CN(CCc3c([nH]c4ccccc34)[C@@](C(=O)OC)(c3cc4c(cc3OC)N(C)[C@H]3[C@@](O)(C(=O)OC)[C@H](OC(C)=O)[C@]5(CC)C=CCN6CC[C@]43[C@@H]65)C2)C1` [Vinblastine], in the series with CEM-r1 cells [1], the “Relative Resistance” value is recorded as “˜1” and the “Cross-resistance” value is recorded as “not resistant”. In addition, the pIC50 in the series on CEM-r1 cells [1] (Homo sapiens, 48 h) was 8.68. In the series with CEM-SS cells [2] (Homo sapiens, CEM-SS, 48 h), this compound gave a pIC50 of 8.74.

Turning to `Cc1cn([C@H]2C[C@H](N=[N+]=[N-])[C@@H](COP(=O)(O)OP(=O)(O)O)O2)c(=O)[nH]c1=O` [AZTDP], in the series with CEM-r1 cells [5], the “Change of intracellular levels over the time period studied” value was “did not change significantly” and the “Share of total cellular anabolites” value was 1%.

Regarding `Nc1nc(N)c2ncn(CCOCP(=O)(O)O)c2n1` [PMEADAP], in the series on CEM-r1 cells [1], the “Relative Resistance” value is listed as 533 and the “Cross-resistance” value is given as “highly cross-resistant”. The same compound gave a pIC50 in the series on CEM-r1 cells [1] (Homo sapiens, 48 h) of 2.92. The same compound gave a pIC50 in the series on CEM-SS cells [2] (Homo sapiens, CEM-SS, 48 h) of 5.64.

By pIC50 is commonly meant the IC50 on a negative log10 scale, so that one unit is a factor of ten.
